Data set [1] concerns BMP-induced phosphorylation of SMAD1/5/8. The experiment in a line: BMP4-induced phosphorylation of SMAD1/5/8, cytoblot (cellular ELISA). The class given is cell-based, murine. Conditions: Mus musculus. The procedure: Murine pulmonary artery smooth muscle cells were isolated, explanted and cultured as previously described (see […] et al. Am. J. Physiol. Lung Cell Mol. Physiol. 280:[…], 2001) and then grown to confluence in 96 well tissue culture plates. Cells were incubated in serum-free medium for 18 h, and then incubated with recombinant BMP2, BMP4, BMP6, BMP9, GDF5, TGF-β, or Activin A ligands (R&D Systems, Minneapolis, Minn.) at varying concentrations in duplicate for 20 minutes. […] Specificity for BMP-mediated signaling was determined separately using a modification of the cellular ELISA technique assaying for the activation of SMAD2 or SMAD3 via TGF-β, or Activin A. A corresponding IC50 was calculated for the effects of these compounds upon those signaling pathways.

Data set [2] is described as follows: Plasma pharmacokinetics after single oral administration. It counts as in vivo. Conditions: C57B16, mouse, oral 3 mg/kg. The procedure: (§1) The pharmacokinetics of compound 70 was evaluated after a single oral administration (3 mg/kg) in male C57B16 mice on a commercial rodent diet and water ad libitum prior to the study. Compound plasma levels were determined by LC-MS/MS and the pharmacokinetic parameters were determined using WinNonlin software (Pharsight Co., Mountain View, Calif.). Dosing solutions (0.6 mg/mL) were prepared in a vehicle comprising 2% hydropropyl-β-cyclodextrin in phosphate-buffered saline (PBS). Each time point (pre-dose, 15, 30, 60, 120, 240, 360, 480 and 1440 min post-dose) was dosed as N=3. Each blood sample was collected via cardiac puncture after euthanasia with CO2 and placed in chilled tubes containing sodium heparin. Samples were centrifuged at 4° C. at 13,000 rpm for 5 min followed by extracted with acetonitrile and then analyzed.
as §1, with “13.HCl” for “compound 70”

Data set [3] in a line: Plasma pharmacokinetics after single bolus intraperitoneal administration. The settings on record: C57B16, mouse, Table 3, male mice, IP 3 mg/kg; for Tmax: read-out: tmax. It counts as in vivo, C57B16 mice. The procedure: as §1, with “13.HCl” for “compound 70”, “bolus intraperitoneal” for “oral”, “male and female” for “male”, “(pre-dose, 5, 10,” for “(pre-dose,”, “480,” for “360, 480 and”, “N=3/sex.” for “N=3.”
The pharmacokinetics of 44.HCl and 37.HCl were evaluated after a single bolus intraperitoneal administration (3 mg/kg) in male C57B16 mice on a commercial rodent diet and water ad libitum prior to the study. Compound plasma levels were determined by LC-MS/MS and the pharmacokinetic parameters were determined using WinNonlin software (Pharsight Co., Mountain View, Calif.). Dosing solutions (0.6 mg/mL) were prepared in a vehicle comprising 2% hydropropyl-β-cyclodextrin in phosphate-buffered saline (PBS). Each time point (pre-dose, 5, 10, 15, 30, 60, 120, 240, 480, 1440 min post-dose) was dosed as
N=3/sex. Each blood sample was collected via cardiac puncture after euthanasia with CO2 and placed in chilled tubes containing sodium heparin. Samples were centrifuged at 4° C. at 13,000 rpm for 5 min followed by extracted with acetonitrile and then analyzed.

A short description of data set [4]: Serum iron levels (Ferene S assay) after IP injections. The class given is in vivo, C57BL/6 mice. Conditions: two IP injections 10 mg/kg 12 h apart; 24 h after first injection. The protocol:
In C57BL/6 mice, two IP injections of dorsomorphin (10 mg/kg) 12 h apart increased serum iron levels, measured by the Ferene S assay (ThermoFisher Scientific, Waltham, Mass.) measured 24 h after first injection by over 60%. (see FIG. 4; n=8 vehicle, n=7 dorsomorphin, P<0.001). Results are expressed as mean±SD.

Data set [5] is described as follows: Microsomal stability in pooled mouse liver microsomes. The class given is in vitro ADME. The settings on record: 0.5 mg/mL microsome protein, 1 mM NADPH. The procedure: Test compound (3 μM final concentration) along with 0.5 mg/mL microsome protein and 1 mM NADPH was incubated for 0, 5, 15, 30 and 60 min. Incubation of test compound and microsomes in the absence of NADPH served as a negative control. The samples were quenched with methanol and centrifuged for 20 min at 2500 rpm to precipitate proteins. Sample supernatants were analyzed (N=3) by LC/MS. The ln peak area ratio (compound peak area/internal standard peak area) was plotted against time and the slope of the line determined to give the elimination rate constant [k=(−1)(slope)]. The half life (t1/2 in minutes) and the in vitro intrinsic clearance (CLint in μL/min/mg protein) values were calculated according to the following equations, where V=incubation volume in μL/mg protein: […]
On the technique in general: Liver microsomes are vesicles of endoplasmic reticulum, rich in cytochrome P450 enzymes.

For data set [6], the system named is PDGFR-mediated signaling. The experiment in a line: PDGF-induced AKT phosphorylation, cellular ELISA in PaSMCs. Conditions: Mus musculus, PASMC; compounds 10 min, then PDGF 30 min; FIG. 2; read-out: functional IC50, PDGF-induced AKT phosphorylation. It counts as cell-based, murine. The protocol: To test the relative effects of dorsomorphin and structurally-related compounds upon PDGFR-mediated signaling, PDGF-induced AKT phosphorylation was measured by cellular ELISA via the detection of phospho-AKT in PaSMCs treated with compounds for 10 min. followed by PDGF for 30 min.

Data set [7] relates to IL6-induced hepcidin expression in HepG2 cells. The experiment in a line: IL6-induced hepcidin expression in HepG2 hepatoma cells. The class given is cell-based, human. Conditions: pretreatment; data not shown. The protocol:
HepG2 cells pretreated with compound 13 (5-625 nM) or vehicle for 30 min. were incubated with IL6 (50 ng/mL) for 1.5 h. Cells were harvested, and hepcidin mRNA and 18S rRNA levels were measured by quantitative RT-PCR. Changes in gene expression were normalized to 18S ribosomal RNA levels using the relative cycle threshold method.

Where [8] appears, read: approximate IC50, cellular ELISA, murine pulmonary artery smooth muscle cells, read-out: IC50 for inhibition of BMP-induced phosphorylation of SMAD1/5/8.

The structures appear in SMILES notation. Structures can show the parent of a compound that is named as a salt. Where two headings read alike, the source gives them in different places.

Regarding `COc1ccc(-c2cnc3c(-c4ccncc4)cnn3c2)cc1` [4-OMe-Ph, 4-Py, H, N, N, 6-(4-Methoxyphenyl)-3-pyridin-4-yl-pyrazolo[1,5-a]pyrimidine], in data set [1] (setting [8]), the IC50 was above 1000 nM.
On the same count and under the same terms, the figure for `COc1ccc(-c2ccc3c(-c4ccnc5ccccc45)cnn3c2)cc1` [4-OMe-Ph, 4-quinolinyl, H, CH, N, 4-[6-(4-Methoxyphenyl)pyrazolo[1,5-a]pyridin-3-yl]quinoline] is below 500 nM; for `COC(=O)c1cc(-c2ccnc3ccccc23)c2ncc(-c3ccc(OC)cc3)cn12` [4-OMe-Ph, 4-quinolinyl, H, N, CCO2Me, Methyl 3-(4-methoxyphenyl)-8-quinolin-4-yl-pyrrolo[1,2-a]pyrimidine-6-carboxylate] it is above 20000 nM.
Same read-out and setting: next, `COc1ccc(-c2cnc3c(-c4ccnc5ccccc45)ccn3c2)cc1` [4-OMe-Ph, 4-quinolinyl, H, N, CH, 4-[3-(4-Methoxyphenyl)pyrrolo[1,2-a]pyrimidin-8-yl]quinoline]: above 20000 nM.
What is called AUC(0-inf) is the area under the concentration-time curve extrapolated to infinity. A higher AUC(0-inf) goes with more exposure. In general, Cmax refers to the peak of the concentration-time curve. As a reminder, the Tmax is the time from dosing to the highest level. Regarding `Cl.c1ccc2c(-c3cnn4cc(-c5ccc(N6CCNCC6)cc5)cnc34)ccnc2c1` [13•HCl, 4-[6-(4-piperazin-1-ylphenyl)pyrazolo[1,5-a]pyrimidin-3-yl]quinoline hydrochloride salt], in data set [2] (Table 5, male mice), the AUC(0-inf) is 919 ng·h/mL, the highest level (Cmax) was 690 nM, the Tmax was 1 h and the half-life was 1.1 h.
`c1ccc2c(-c3cnn4cc(-c5ccc(N6CCNCC6)cc5)ccc34)ccnc2c1` [37•HCl, 4-[6-(4-Piperazin-1-ylphenyl)pyrazolo[1,5-a]pyridin-3-yl]-quinoline]: in data set [3], the total exposure AUC(0-inf) came out at 207 ng·h/mL, the Cmax came out at 290 nM, the half-life is 2.2 h and the time to peak (Tmax) was below 0.25 h.
The matching figures for `COC1(c2ccc(-c3cnc4c(-c5ccnc6ccccc56)cnn4c3)cc2)CCNCC1` [44•HCl, 4-(6-(4-(4-methoxypiperidin-4-yl)phenyl)pyrazolo[1,5-a]pyrimidin-3-yl)quinoline]: 583 ng·h/mL, 660 nM, 1.4 h and below 0.25 h.
Take `OC1(c2ccc(-c3cnc4c(-c5ccnc6ccccc56)cnn4c3)cc2)CCNCC1` [Compound 70, 4-(4-(3-(quinolin-4-yl)pyrazolo[1,5-a]pyrimidin-6-yl)phenyl)piperidin-4-ol]: in data set [2] (Table 4, male mice), the total exposure AUC(0-inf) amounted to 143 ng·h/mL, the concentration peaked (Cmax) at 100 nM, the Tmax was 0.25 h and the half-life was 1.7 h.
`c1cc(-c2cnn3cc(-c4ccc(OCCN5CCCCC5)cc4)cnc23)ccn1` [Dorsomorphin, reference compound]: the “increase of serum iron levels” value in data set [4] is “over 60%”. The half-life at 3 μM in data set [5] (read-out: half-life (t1/2) in mouse liver microsomes) was determined as 0.173 h. Further, in data set [5] (read-out: intrinsic clearance (CLint) in mouse liver microsomes), the microsomal CLint at 3 μM came to 133 ± 6.6 µL/min/mg. The IC50 in data set [6] was around 500 nM; in data set [1] (FIG. 1, approximate, read-out: functional IC50, BMP4-induced SMAD1/5/8 phosphorylation), around 400 nM.
Take `C[C@@H]1C[C@@H]([C@H](O)CC2CC(=O)NC(=O)C2)C(=O)[C@@H](C)C1` [cycloheximide, reference compound]: the “ability of IL6 to induce hepcidin gene expression” value in data set [7] was “did not block the ability of IL6 to induce hepcidin gene expression”.

Values taken from patent publication US9045484B2, “Inhibitors of the BMP signaling pathway” (The Brigham and Women's Hospital, Inc., priority 2008, dated 2015).
